Laboratory results taken from ChEMBL document CHEMBL1250481, “Isoxazole analogs of curcuminoids with highly potent multidrug-resistant antimycobacterial activity” (2010).
In brackets after ≈: the same amount, converted by molar mass.

What was measured:
Type in all cases: functional
[1] = test system: Mycobacterium tuberculosis; assay: Antimycobacterial activity against isoniazid and rifampin-resistant Mycobacterium tuberculosis M6 after 24 hrs by microtiter alamar blue assay; settings: M6, 24 h
[2] = test system: Mycobacterium tuberculosis; assay: Antimycobacterial activity against isoniazid and rifampin -resistant Mycobacterium tuberculosis M27 after 24 hrs by microtiter alamar blue assay; settings: M27, 24 h
[3] = test system: Mycobacterium tuberculosis; assay: Antimycobacterial activity against isoniazid, rifampin, ethambutol and streptomycin-resistant Mycobacterium tuberculosis M21 after 24 hrs by microtiter alamar blue assay; settings: M21, 24 h
[4] = test system: Mycobacterium tuberculosis; assay: Antimycobacterial activity against isoniazid, rifampin, ethambutol, streptomycin, ofloxacin and ciprofloxacin-resistant Mycobacterium tuberculosis M48 after 24 hrs by microtiter alamar blue assay; settings: M48, 24 h
[5] = test system: Mycobacterium tuberculosis; assay: Antimycobacterial activity against isoniazid, rifampin, ethambutol and streptomycin-resistant Mycobacterium tuberculosis M8 after 24 hrs by microtiter alamar blue assay; settings: M8, 24 h
[6] = test system: Mycobacterium tuberculosis; assay: Antimycobacterial activity against isoniazid and rifampin-resistant Mycobacterium tuberculosis M11 after 24 hrs by microtiter alamar blue assay; settings: M11, 24 h
[7] = test system: Mycobacterium tuberculosis; assay: Antimycobacterial activity against isoniazid, rifampin, ethambutol and streptomycin-resistant Mycobacterium tuberculosis M4 after 24 hrs by microtiter alamar blue assay; settings: M4, 24 h
[8] = test system: Mycobacterium tuberculosis; assay: Antimycobacterial activity against isoniazid and rifampin -resistant Mycobacterium tuberculosis M22 after 24 hrs by microtiter alamar blue assay; settings: M22, 24 h
[9] = test system: Mycobacterium tuberculosis; assay: Antimycobacterial activity against isoniazid, rifampin and streptomycin-resistant Mycobacterium tuberculosis M5 after 24 hrs by microtiter alamar blue assay; settings: M5, 24 h
[10] = test system: Mycobacterium tuberculosis; assay: Antimycobacterial activity against isoniazid, rifampin and ethambutol-resistant Mycobacterium tuberculosis M16 after 24 hrs by microtiter alamar blue assay; settings: M16, 24 h
[11] = test system: Mycobacterium tuberculosis; assay: Antimycobacterial activity against isoniazid, rifampin, ethambutol, streptomycin, ofloxacin and ciprofloxacin-resistant Mycobacterium tuberculosis M46 after 24 hrs by microtiter alamar blue assay; settings: M46, 24 h
[12] = test system: Mycobacterium tuberculosis; assay: Antimycobacterial activity against isoniazid, rifampin and streptomycin-resistant Mycobacterium tuberculosis M3 after 24 hrs by microtiter alamar blue assay; settings: M3, 24 h
[13] = test system: Mycobacterium tuberculosis; assay: Antimycobacterial activity against isoniazid, rifampin, ethambutol, streptomycin, ofloxacin and ciprofloxacin-resistant Mycobacterium tuberculosis M53 after 24 hrs by microtiter alamar blue assay; settings: M53, 24 h

CCCCCOc1ccc(/C=C/c2cc(/C=C/c3ccc(O)c(OC)c3)no2)cc1OC
MIC [1]: 3.12 µg/mL (≈ 7.18 µM)
MIC [2]: 1.56 µg/mL (≈ 3.58 µM)
MIC [3]: 6.25 µg/mL (≈ 14.4 µM)
MIC [4]: 3.12 µg/mL (≈ 7.18 µM)
MIC [5]: 6.25 µg/mL (≈ 14.4 µM)
MIC [6]: 6.25 µg/mL (≈ 14.4 µM)
MIC [7]: 1.56 µg/mL (≈ 3.58 µM)
MIC [8]: 6.25 µg/mL (≈ 14.4 µM)
MIC [9]: 1.56 µg/mL (≈ 3.58 µM)
MIC [10]: 1.56 µg/mL (≈ 3.58 µM)
MIC [11]: 1.56 µg/mL (≈ 3.58 µM)
MIC [12]: 1.56 µg/mL (≈ 3.58 µM)
MIC [13]: 3.12 µg/mL (≈ 7.18 µM)

COc1cc(/C=C/c2cc(/C=C/c3ccc(OC)c(OC)c3)no2)ccc1O
MIC [1]: 0.39 µg/mL (≈ 1.03 µM)
MIC [2]: 0.195 µg/mL (≈ 0.514 µM)
MIC [3]: 3.12 µg/mL (≈ 8.24 µM)
MIC [4]: 1.56 µg/mL (≈ 4.11 µM)
MIC [5]: 3.12 µg/mL (≈ 8.24 µM)
MIC [6]: 3.12 µg/mL (≈ 8.24 µM)
MIC [7]: 1.56 µg/mL (≈ 4.11 µM)
MIC [8]: 0.39 µg/mL (≈ 1.03 µM)
MIC [9]: 3.12 µg/mL (≈ 8.24 µM)
MIC [10]: 1.56 µg/mL (≈ 4.11 µM)
MIC [11]: 1.56 µg/mL (≈ 4.11 µM)
MIC [12]: 0.195 µg/mL (≈ 0.514 µM)
MIC [13]: 3.12 µg/mL (≈ 8.24 µM)

COc1cc(/C=C/c2cc(/C=C/c3ccc(OC)c(OC)c3)on2)ccc1O
MIC [1]: 1.56 µg/mL (≈ 4.11 µM)
MIC [2]: 0.78 µg/mL (≈ 2.06 µM)
MIC [3]: 12.5 µg/mL (≈ 32.9 µM)
MIC [4]: 12.5 µg/mL (≈ 32.9 µM)
MIC [5]: 12.5 µg/mL (≈ 32.9 µM)
MIC [6]: 12.5 µg/mL (≈ 32.9 µM)
MIC [7]: 6.25 µg/mL (≈ 16.5 µM)
MIC [8]: 1.56 µg/mL (≈ 4.11 µM)
MIC [9]: 12.5 µg/mL (≈ 32.9 µM)
MIC [10]: 12.5 µg/mL (≈ 32.9 µM)
MIC [11]: 6.25 µg/mL (≈ 16.5 µM)
MIC [12]: 0.78 µg/mL (≈ 2.06 µM)
MIC [13]: 12.5 µg/mL (≈ 32.9 µM)

CCCCCOc1ccc(/C=C/c2cc(/C=C/c3ccc(O)c(OC)c3)on2)cc1OC
MIC [1]: 0.78 µg/mL (≈ 1.79 µM)
MIC [2]: 0.39 µg/mL (≈ 0.895 µM)
MIC [3]: 3.12 µg/mL (≈ 7.18 µM)
MIC [4]: 3.12 µg/mL (≈ 7.18 µM)
MIC [5]: 3.12 µg/mL (≈ 7.18 µM)
MIC [6]: 3.12 µg/mL (≈ 7.18 µM)
MIC [7]: 1.56 µg/mL (≈ 3.58 µM)
MIC [8]: 0.78 µg/mL (≈ 1.79 µM)
MIC [9]: 1.56 µg/mL (≈ 3.58 µM)
MIC [10]: 1.25 µg/mL (≈ 2.87 µM)
MIC [11]: 1.56 µg/mL (≈ 3.58 µM)
MIC [12]: 0.39 µg/mL (≈ 0.895 µM)
MIC [13]: 3.12 µg/mL (≈ 7.18 µM)
